Experiment [1] addresses T1, Serine/threonine-protein kinase BRSK1 (Homo sapiens) (UniProt Q8TDC3).
T1 sequence (whole entry): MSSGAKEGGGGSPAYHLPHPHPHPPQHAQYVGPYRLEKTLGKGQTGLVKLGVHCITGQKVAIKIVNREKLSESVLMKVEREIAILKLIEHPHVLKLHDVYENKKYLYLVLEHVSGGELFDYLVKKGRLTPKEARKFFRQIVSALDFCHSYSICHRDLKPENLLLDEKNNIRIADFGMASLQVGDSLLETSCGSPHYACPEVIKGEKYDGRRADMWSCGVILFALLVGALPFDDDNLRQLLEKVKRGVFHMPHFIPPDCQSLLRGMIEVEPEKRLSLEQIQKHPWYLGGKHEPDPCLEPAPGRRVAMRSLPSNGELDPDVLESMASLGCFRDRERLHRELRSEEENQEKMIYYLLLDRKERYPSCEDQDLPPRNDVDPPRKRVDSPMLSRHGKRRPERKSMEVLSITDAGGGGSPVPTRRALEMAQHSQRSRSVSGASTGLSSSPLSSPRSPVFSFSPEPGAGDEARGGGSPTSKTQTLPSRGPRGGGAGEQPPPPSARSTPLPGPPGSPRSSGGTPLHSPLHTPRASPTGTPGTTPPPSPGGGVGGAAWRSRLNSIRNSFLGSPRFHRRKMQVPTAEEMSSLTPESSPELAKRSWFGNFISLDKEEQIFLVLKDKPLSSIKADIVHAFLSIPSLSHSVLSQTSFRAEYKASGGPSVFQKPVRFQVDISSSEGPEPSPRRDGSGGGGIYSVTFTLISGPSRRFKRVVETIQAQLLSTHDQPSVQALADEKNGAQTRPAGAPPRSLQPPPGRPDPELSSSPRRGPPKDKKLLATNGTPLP
As to the kind of experiment: Residual activity of BRSK1 at 1 uM by microplate scintillation counting.

Experiment [2] has as its target T2, Serine/threonine-protein kinase D1 (Homo sapiens) (UniProt Q15139).
T2 sequence (whole entry): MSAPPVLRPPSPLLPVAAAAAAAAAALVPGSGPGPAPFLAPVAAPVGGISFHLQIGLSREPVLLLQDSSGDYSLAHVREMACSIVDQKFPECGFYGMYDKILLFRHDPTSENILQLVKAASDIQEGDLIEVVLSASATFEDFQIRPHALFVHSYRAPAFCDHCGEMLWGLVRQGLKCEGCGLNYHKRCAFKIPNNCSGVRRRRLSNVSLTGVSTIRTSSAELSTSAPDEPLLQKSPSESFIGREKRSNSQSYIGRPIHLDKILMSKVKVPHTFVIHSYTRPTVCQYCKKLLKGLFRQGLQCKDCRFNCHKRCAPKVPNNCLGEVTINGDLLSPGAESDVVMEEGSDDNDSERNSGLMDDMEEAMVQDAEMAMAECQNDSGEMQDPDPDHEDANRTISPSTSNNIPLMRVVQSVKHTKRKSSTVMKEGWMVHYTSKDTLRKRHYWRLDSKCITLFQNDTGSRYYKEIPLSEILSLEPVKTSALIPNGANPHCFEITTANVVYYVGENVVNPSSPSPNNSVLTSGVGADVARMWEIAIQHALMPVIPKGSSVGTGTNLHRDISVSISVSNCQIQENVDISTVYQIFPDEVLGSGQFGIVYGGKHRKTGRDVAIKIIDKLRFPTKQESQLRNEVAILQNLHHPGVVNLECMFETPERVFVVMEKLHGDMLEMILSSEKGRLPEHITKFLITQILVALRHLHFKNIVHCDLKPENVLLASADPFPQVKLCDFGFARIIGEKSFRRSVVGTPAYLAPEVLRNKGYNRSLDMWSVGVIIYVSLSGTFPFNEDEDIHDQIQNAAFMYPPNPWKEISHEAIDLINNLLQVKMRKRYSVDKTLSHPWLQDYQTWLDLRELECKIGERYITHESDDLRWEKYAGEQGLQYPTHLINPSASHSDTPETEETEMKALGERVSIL
As to the kind of experiment: Residual activity of PKCmu at 0.1 uM by microplate scintillation counting.

In experiment [3] the target is Serine/threonine-protein kinase 16 (Homo sapiens) (UniProt O75716). As to the kind of experiment: Residual activity of TSF1 at 10 uM by microplate scintillation counting.
For experiment [4], the target named is SRSF protein kinase 2 (Homo sapiens) (UniProt P78362). As to the kind of experiment: Residual activity of SRPK2 at 10 uM by microplate scintillation counting.
Experiment [5] has as its target T3, Serine/threonine-protein kinase Nek1 (Homo sapiens) (UniProt Q96PY6).
T3 sequence (whole entry): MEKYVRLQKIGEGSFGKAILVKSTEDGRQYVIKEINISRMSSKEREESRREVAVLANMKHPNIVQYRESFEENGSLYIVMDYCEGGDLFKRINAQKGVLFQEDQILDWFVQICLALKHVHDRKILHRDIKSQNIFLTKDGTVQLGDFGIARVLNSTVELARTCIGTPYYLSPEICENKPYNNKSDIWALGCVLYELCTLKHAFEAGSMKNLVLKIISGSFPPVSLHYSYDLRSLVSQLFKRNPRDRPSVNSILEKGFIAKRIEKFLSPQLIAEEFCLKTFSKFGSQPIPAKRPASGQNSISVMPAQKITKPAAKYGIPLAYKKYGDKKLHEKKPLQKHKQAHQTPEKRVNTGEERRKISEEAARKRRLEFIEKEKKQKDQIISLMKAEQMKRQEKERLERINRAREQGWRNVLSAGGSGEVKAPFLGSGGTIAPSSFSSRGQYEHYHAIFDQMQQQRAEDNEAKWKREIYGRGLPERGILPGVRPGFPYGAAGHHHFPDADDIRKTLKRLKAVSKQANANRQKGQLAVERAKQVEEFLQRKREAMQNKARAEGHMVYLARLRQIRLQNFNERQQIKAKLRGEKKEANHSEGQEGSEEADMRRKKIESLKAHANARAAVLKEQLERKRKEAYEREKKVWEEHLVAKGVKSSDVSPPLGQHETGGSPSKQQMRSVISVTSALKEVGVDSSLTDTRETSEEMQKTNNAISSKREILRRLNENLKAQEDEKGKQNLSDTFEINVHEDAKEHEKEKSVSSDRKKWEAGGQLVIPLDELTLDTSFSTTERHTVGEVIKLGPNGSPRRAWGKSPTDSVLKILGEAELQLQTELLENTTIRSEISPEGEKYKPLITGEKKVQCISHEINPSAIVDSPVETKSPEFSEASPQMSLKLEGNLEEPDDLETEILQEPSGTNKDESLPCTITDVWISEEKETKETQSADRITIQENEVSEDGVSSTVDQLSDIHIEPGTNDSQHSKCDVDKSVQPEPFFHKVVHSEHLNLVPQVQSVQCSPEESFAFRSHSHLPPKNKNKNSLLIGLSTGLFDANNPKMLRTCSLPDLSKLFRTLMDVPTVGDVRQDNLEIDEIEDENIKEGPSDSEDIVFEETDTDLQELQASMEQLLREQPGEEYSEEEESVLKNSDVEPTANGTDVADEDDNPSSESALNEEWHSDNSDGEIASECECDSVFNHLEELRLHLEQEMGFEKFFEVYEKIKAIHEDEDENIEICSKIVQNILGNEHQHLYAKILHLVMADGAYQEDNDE
As to the kind of experiment: Residual activity of NEK1 at 10 uM by microplate scintillation counting.

SRSF protein kinase 2 (Homo sapiens), sequence (P78362 whole entry, looked up): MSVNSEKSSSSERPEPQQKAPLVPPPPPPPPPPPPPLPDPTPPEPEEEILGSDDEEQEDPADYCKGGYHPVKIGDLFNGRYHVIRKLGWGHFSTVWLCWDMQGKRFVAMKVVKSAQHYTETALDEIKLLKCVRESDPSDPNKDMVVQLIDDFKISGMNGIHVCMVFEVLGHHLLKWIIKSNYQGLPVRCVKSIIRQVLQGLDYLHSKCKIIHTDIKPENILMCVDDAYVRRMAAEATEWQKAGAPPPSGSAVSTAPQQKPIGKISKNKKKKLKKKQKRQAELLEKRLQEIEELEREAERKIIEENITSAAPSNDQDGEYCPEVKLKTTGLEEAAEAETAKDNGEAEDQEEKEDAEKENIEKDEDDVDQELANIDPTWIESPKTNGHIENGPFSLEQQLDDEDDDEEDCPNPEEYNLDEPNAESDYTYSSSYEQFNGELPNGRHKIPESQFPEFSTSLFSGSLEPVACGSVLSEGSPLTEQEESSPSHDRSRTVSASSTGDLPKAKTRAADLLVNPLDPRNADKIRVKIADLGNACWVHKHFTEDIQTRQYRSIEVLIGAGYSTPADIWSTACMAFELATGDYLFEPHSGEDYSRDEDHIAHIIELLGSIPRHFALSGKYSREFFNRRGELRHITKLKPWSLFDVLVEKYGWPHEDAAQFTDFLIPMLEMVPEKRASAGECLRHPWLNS
Serine/threonine-protein kinase 16 (Homo sapiens), sequence (O75716 whole entry): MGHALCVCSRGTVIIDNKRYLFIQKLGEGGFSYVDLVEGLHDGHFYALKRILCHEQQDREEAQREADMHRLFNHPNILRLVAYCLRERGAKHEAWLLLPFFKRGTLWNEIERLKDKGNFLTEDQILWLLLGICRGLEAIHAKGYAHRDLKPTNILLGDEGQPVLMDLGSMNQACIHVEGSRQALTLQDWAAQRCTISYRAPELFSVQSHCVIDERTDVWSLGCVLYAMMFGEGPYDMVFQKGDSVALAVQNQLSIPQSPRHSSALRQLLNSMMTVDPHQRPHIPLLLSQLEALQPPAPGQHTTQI

As a reminder, the residual activity is the signal under treatment as a percentage of the control signal. On to `COc1cc2c(Oc3ccc(-c4nc5ccccc5s4)cc3)ncnc2cc1OCCCN1CCCC1`, for which the residual activity in experiment [1] is 91%; in experiment [2], 102%; in experiment [3], 56%; in experiment [4], 128%; in experiment [5], 93%.

Regarding `COc1cc2c(Oc3ccc(-c4nc5ccccc5s4)cc3F)ncnc2cc1OCCCN1CCN(C)CC1`, the residual activity in experiment [1] worked out at 91%; in experiment [2], 81%; in experiment [3], 59%; in experiment [4] it was 100%; in experiment [5], 101%.

With `COc1cc2c(Oc3ccc(-c4nc5ccccc5s4)cc3)ncnc2cc1OCCCN1CCN(C)CC1`, the residual activity in experiment [1] turned out to be 91%; in experiment [2] it was 91%; in experiment [3] it was 66%; in experiment [4] it was 115%; in experiment [5], 104%.

For the origin of these results see ChEMBL document CHEMBL1152560, “Substituted 2-arylbenzothiazoles as kinase inhibitors: hit-to-lead optimization” (Bioorg Med Chem, 2009).
